Measurements as given in ChEMBL document CHEMBL1201862, “PubChem BioAssay data set” (2004).
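Five concentrations, 48 hours, 96-well plates. The concentration for 50% growth inhibition is given as GI50.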 Activity calls are given as the source filed them. Rule as the data show it: active = GI50 up to about 1.1 µM and inactive = higher.

Assays:
Test in all cases: NCI anticancer screen, dose series, 48 h
SW-620 = system: SW-620
NCI-H522 = system: NCI-H522
SK-MEL-28 = system: SK-MEL-28
CAKI-1 = system: CAKI-1
OVCAR-3 = system: OVCAR-3
HOP-62 = system: HOP-62
DU-145 = system: DU-145
SNB-19 = system: SNB-19
786-0 = system: 786-0
MDA-MB-435 = system: MDA-MB-435
HT-29 = system: HT-29
SR = system: SR
UACC-62 = system: UACC-62
NCI/ADR-RES = system: NCI/ADR-RES
COLO 205 = system: COLO 205
MDA-MB-231 = system: MDA-MB-231
RPMI-8226 = system: RPMI-8226
HCT-116 = system: HCT-116
HCC 2998 = system: HCC 2998
SNB-75 = system: SNB-75

Measured: GI50

O=C1CC(CC(=O)c2ccc(Br)cc2)C(O)=C1C(=O)c1ccc(Br)cc1 (centres undefined)
inactive: SW-620 > 100 µM | NCI-H522 51.6 µM | SK-MEL-28 > 100 µM | CAKI-1 > 100 µM | OVCAR-3 32.6 µM | HOP-62 94.4 µM | DU-145 > 100 µM | SNB-19 56.2 µM | 786-0 > 100 µM | MDA-MB-435 > 100 µM | HT-29 49.2 µM | SR 44.3 µM | UACC-62 42.6 µM | NCI/ADR-RES > 100 µM | COLO 205 > 100 µM | MDA-MB-231 72.9 µM | RPMI-8226 > 100 µM | HCT-116 54.2 µM | HCC 2998 > 100 µM

CC(=O)OCC1OC(n2c(C)c(/N=N/c3ccc(C)cc3)c(C)c(C#N)c2=S)C(OC(C)=O)C(OC(C)=O)C1OC(C)=O (centres undefined)
inactive: SW-620 > 100 µM | SK-MEL-28 > 100 µM | CAKI-1 > 100 µM | OVCAR-3 > 100 µM | HOP-62 > 100 µM | DU-145 > 100 µM | SNB-19 > 100 µM | 786-0 27.4 µM | MDA-MB-435 > 100 µM | HT-29 > 100 µM | SR > 100 µM | UACC-62 50.2 µM | NCI/ADR-RES > 100 µM | COLO 205 > 100 µM | MDA-MB-231 48.6 µM | RPMI-8226 > 100 µM | HCT-116 > 100 µM | HCC 2998 > 100 µM | SNB-75 60.4 µM

COc1ccc(Nc2nnc(-c3nsc4ccccc34)s2)cc1
inactive: SW-620 > 72.9 µM | SK-MEL-28 > 100 µM | CAKI-1 54.5 µM | OVCAR-3 63 µM | HOP-62 8.26 µM | DU-145 > 100 µM | SNB-19 > 53.1 µM | 786-0 3.41 µM | MDA-MB-435 > 100 µM | HT-29 39 µM | SR 39.9 µM | UACC-62 > 100 µM | NCI/ADR-RES 9.71 µM | COLO 205 63.7 µM | MDA-MB-231 6.5 µM | RPMI-8226 22.9 µM | HCT-116 8.55 µM | HCC 2998 > 56.4 µM | SNB-75 2.6 µM

NNC(=O)CCC(NS(=O)(=O)c1ccc(Cl)cc1)C(=O)NN (centres undefined)
inactive: SW-620 > 100 µM | NCI-H522 > 100 µM | SK-MEL-28 > 100 µM | CAKI-1 > 100 µM | OVCAR-3 > 100 µM | HOP-62 > 100 µM | DU-145 > 100 µM | SNB-19 > 100 µM | 786-0 > 100 µM | MDA-MB-435 > 100 µM | HT-29 > 100 µM | SR > 100 µM | UACC-62 > 100 µM | NCI/ADR-RES > 100 µM | COLO 205 > 100 µM | MDA-MB-231 > 100 µM | HCT-116 > 100 µM | HCC 2998 > 100 µM | SNB-75 > 100 µM

C/C(=N\Nc1cc(CN2CCCC2)c(-c2ccc(Cl)cc2)nn1)C(=O)O
inactive: SW-620 > 100 µM | NCI-H522 > 100 µM | SK-MEL-28 > 100 µM | CAKI-1 > 100 µM | OVCAR-3 90.2 µM | HOP-62 > 100 µM | DU-145 > 100 µM | SNB-19 > 100 µM | 786-0 > 100 µM | MDA-MB-435 > 100 µM | HT-29 > 100 µM | SR > 100 µM | UACC-62 > 100 µM | NCI/ADR-RES > 100 µM | COLO 205 > 100 µM | MDA-MB-231 > 100 µM | RPMI-8226 > 100 µM | HCT-116 > 100 µM | SNB-75 > 100 µM

NS(=O)(=O)c1nnc(NSc2ccc([N+](=O)[O-])cc2)s1
inactive: SW-620 > 100 µM | NCI-H522 23.7 µM | SK-MEL-28 > 100 µM | CAKI-1 92.3 µM | OVCAR-3 > 100 µM | HOP-62 > 100 µM | DU-145 > 100 µM | SNB-19 > 100 µM | 786-0 > 100 µM | MDA-MB-435 > 100 µM | SR 59.6 µM | UACC-62 > 100 µM | NCI/ADR-RES > 100 µM | COLO 205 > 100 µM | MDA-MB-231 > 100 µM | RPMI-8226 49.7 µM | HCT-116 > 100 µM | HCC 2998 > 100 µM

O=C(O)CCC(NC(=O)c1ccc(Oc2nc3ccccc3nc2-c2ccccc2)cc1)C(=O)O (centres undefined)
inactive: SW-620 > 100 µM | NCI-H522 > 100 µM | SK-MEL-28 > 100 µM | CAKI-1 > 100 µM | OVCAR-3 > 100 µM | HOP-62 > 100 µM | DU-145 > 100 µM | SNB-19 > 100 µM | 786-0 > 100 µM | MDA-MB-435 > 100 µM | HT-29 > 100 µM | SR > 100 µM | UACC-62 > 100 µM | NCI/ADR-RES > 100 µM | COLO 205 > 100 µM | MDA-MB-231 > 100 µM | HCT-116 > 100 µM | HCC 2998 > 100 µM | SNB-75 > 100 µM

CC(C)N(C(=O)C12C3(C(=O)C(C)(C)C)C4C5(C#N)C3C1(C(=O)C(C)(C)C)C5C42C(=O)C(C)(C)C)C(C)C (centres undefined)
inactive: SW-620 > 100 µM | NCI-H522 > 100 µM | SK-MEL-28 > 100 µM | CAKI-1 > 100 µM | OVCAR-3 > 100 µM | HOP-62 > 100 µM | DU-145 > 100 µM | SNB-19 > 100 µM | 786-0 > 100 µM | MDA-MB-435 > 100 µM | HT-29 > 100 µM | SR > 100 µM | UACC-62 > 100 µM | NCI/ADR-RES > 100 µM | COLO 205 > 100 µM | MDA-MB-231 > 100 µM | HCT-116 > 100 µM | HCC 2998 > 100 µM | SNB-75 14.1 µM

CC(C)(C)OC(=O)NNCC(O)COc1ccccc1 (centres undefined)
inactive: SW-620 > 100 µM | NCI-H522 > 100 µM | SK-MEL-28 > 100 µM | CAKI-1 > 100 µM | OVCAR-3 > 100 µM | HOP-62 > 100 µM | DU-145 > 100 µM | SNB-19 > 100 µM | 786-0 > 100 µM | MDA-MB-435 > 100 µM | HT-29 > 100 µM | SR > 100 µM | UACC-62 > 100 µM | NCI/ADR-RES > 100 µM | COLO 205 > 100 µM | MDA-MB-231 > 100 µM | RPMI-8226 > 100 µM | HCT-116 > 100 µM | HCC 2998 > 100 µM

CC[C@]12C=CCN3CCC4(c5cc(/N=N/c6ccccc6)c(OC)cc5N(C)[C@H]4[C@@](O)(C(=O)OC)[C@@H]1OC(C)=O)[C@@H]32 (some centres undefined)
inactive: SW-620 23.1 µM | NCI-H522 16.1 µM | SK-MEL-28 20.3 µM | CAKI-1 24.2 µM | OVCAR-3 12.8 µM | HOP-62 17.5 µM | DU-145 17.6 µM | SNB-19 20.5 µM | 786-0 16.9 µM | MDA-MB-435 18.8 µM | HT-29 16.3 µM | SR 19.4 µM | UACC-62 14.5 µM | NCI/ADR-RES 20.4 µM | COLO 205 25.2 µM | MDA-MB-231 16.2 µM | RPMI-8226 19.2 µM | HCT-116 16.4 µM | HCC 2998 17.9 µM
